# From publication PMC12004451, “Characterization of the Two-Domain Peptide Binding Mechanism of the Human CGRP Receptor for CGRP and the Ultrahigh Affinity ssCGRP Variant” (Biochemistry, 2025)
# Ends that are not written are not given here.
# What was measured:
# [1] = cited from earlier work
# Source text: Our analysis of the ssCGRP agonist and its truncated antagonist forms advance our understanding of their potential as long-acting therapeutics. It is widely accepted that long residence time is a desirable property of drugs.[61],[62] This is particularly true for antagonists, but there can also be value in long residence time GPCR agonists.[63],[64] […] The ssCGRP(8-37) antagonist has a CGRPR residence-time longer than the plasma half-life and the ssCGRP agonist can signal for longer than t ...
# [2] = tested on: CGRPR (CLR:RAMP1) in COS-7 cells; experiment: CAMYEL cAMP biosensor competition assay with N-terminal TMD-binding agonist AM(13-36); assay type: cell-based, human; conditions: 30 μM, end point cAMP biosensor assay
# Procedure: COS-7 cells were seeded in a 96-well white plate (Corning; Costar 3917) with a density of 20,000 cell/well, 100 μL/well, and incubated at 37 °C and 5% CO2 for 24 h. Cells were transiently transfected with 250 ng DNA total with 25 ng CLR, 25 ng RAMP, 125 ng CAMYEL biosensor, 75 ng empty pcDNA3.1(+) vector, and 375 ng branched PEI per well. Transfected cells were incubated at 37 °C and 5% CO2. […] The preincubation was followed by addition of coelenterazine h (10 μM) and simultaneous addition of 30 μM AM(13-36) agonist and antagonist as indicated, and incubated for 1 h at room temperature in total volume of 50 μL. Emissions at 475 and 535 nm were read in a PHERAstar FS plate reader (BMG Labtech, Ortenberg, Germany). The buffer control (no ligand) was subtracted from each data set and plotted with the corresponding 475/535 BRET ratio in GraphPad Prism.
# [3] = tested on: calcitonin receptor (CTR) ECD; conditions: cited from earlier work
# Source text: Similar to ssCGRP, the C-terminal segment of sCT has increased affinity for the receptor ECD, bein ...
compound,measurement,setting,value
"CC(C)C[C@H](NC(=O)CNC(=O)[C@H](C)NC(=O)[C@H](CC(C)C)NC(=O)[C@H](CCCNC(=N)N)NC(=O)[C@H](Cc1cnc[nH]1)NC(=O)[C@@H](NC(=O)[C@@H](NC(=O)[C@@H]1CSSC[C@H](NC(=O)[C@H](C)N)C(=O)N[C@@H](CC(=O)O)C(=O)N[C@@H]([C@@H](C)O)C(=O)N[C@@H](C)C(=O)N[C@@H]([C@@H](C)O)C(=O)N1)C(C)C)[C@@H](C)O)C(=O)N[C@@H](CC(C)C)C(=O)N[C@@H](CO)C(=O)N[C@@H](CCCNC(=N)N)C(=O)N[C@@H](CO)C(=O)NCC(=O)NCC(=O)N[C@H](C(=O)N[C@H](C(=O)N[C@@H](CCCCN)C(=O)N[C@@H](CC(N)=O)C(=O)N[C@@H](CC(N)=O)C(=O)N[C@@H](Cc1ccccc1)C(=O)N[C@H](C(=O)N1CCC[C@H]1C(=O)N[C@H](C(=O)N[C@@H](CC(N)=O)C(=O)N[C@H](C(=O)NCC(=O)N[C@@H](CO)C(=O)N[C@@H](CCCCN)C(=O)N[C@@H](C)C(=O)N[C@@H](Cc1ccccc1)C(N)=O)C(C)C)[C@@H](C)O)C(C)C)C(C)C)C(C)C [CGRP(1-37), αCGRP(1-37)]",plasma half-life,[1],~20 min
"AM(13-36): C-terminally truncated adrenomedullin agonist comprising the TMD-binding portion (SFGCRFGTCTVQKLAHQIYQFTDK; ends and bridges not checked; cysteine pairing not given here; UniProt P35318 107-130, looked up, fragment)",agonism of the CGRPR (cAMP),[2],agonism
Salmon calcitonin [sCT],higher affinity of C-terminal segment for receptor ECD than hCT,[3],~50 fold
